Data reported in ChEMBL document CHEMBL4651402, “Screening of ~5500 FDA-approved drugs and clinical candidates for anti-SARS-CoV-2 activity” (2021).

Test system: SARS-CoV-2
Experiment: microbe, parasite or virus in culture
Details: Severe acute respiratory syndrome coronavirus 2, Vero C1008, 48 h

Row | Structure (SMILES) | IC50 [µM] | IC50 (read-out: pIC50 (converted)) [µM]
1 | CCOC(=O)N1CCC(=O)N(c2ccccc2)c2cc(Cl)ccc21 [ARFENDAZAM] | > 20 | > 20
2 | CC1CNc2c(cccc2S(=O)(=O)N[C@@H](CCCNC(=N)N)C(=O)N2CC[C@@H](C)C[C@@H]2C(=O)O)C1 (stereo partly drawn) [ARGATROBAN] | > 20 | > 20
3 | C=C1C(=O)O[C@@H]2[C@H]3C(C)=CC[C@@]34O[C@@]4(C)CC[C@@H]12 [ARGLABIN] | > 20 | > 20
4 | CC(=O)NCCOC(=O)[C@H](Oc1cccc(C(F)(F)F)c1)c1ccc(Cl)cc1 [ARHALOFENATE] | > 20 | > 20
5 | CCCn1c(=O)c2[nH]cnc2n(-c2ccc(Cl)cc2)c1=O [AROFYLLINE] | > 20 | > 20
6 | CCN(CC)CC#CCOC(=O)[C@](O)(c1ccccc1)C1CCCCC1 [AROXYBUTYNIN] | > 20 | > 20
7 | C[C@@H]1CC[C@H]2[C@@H](C)C(=O)O[C@@H]3O[C@@]4(C)CC[C@@H]1[C@]32OO4 [ARTEMISININ] | > 20 | > 20
8 | C[C@H]1[C@H](OC(=O)CCC(=O)O)O[C@@H]2O[C@@]3(C)CC[C@H]4[C@H](C)CC[C@@H]1[C@@]24OO3 [ARTESUNATE] | > 20 | > 20
9 | CCCNC(C)C(=O)Nc1c(C)csc1C(=O)OC (stereo not drawn) [ARTICAINE] | > 20 | > 20
10 | c1ccc2c(Cc3c[nH]c4ccccc34)c[nH]c2c1 [ARUNDINE] | > 20 | > 20
11 | c1cc2c(cc1[C@H]1OC[C@H]3[C@@H]1CO[C@H]3c1ccc3c(c1)OCO3)OCO2 [ASARININ] | > 20 | > 20
12 | O=C1O[C@H]([C@@H](O)CO)C(O)=C1O [ASCORBIC ACID] | > 20 | > 20
13 | CN(C(=O)C(c1ccccc1)c1ccccc1)[C@H](CN1CC[C@H](O)C1)c1ccccc1 [ASIMADOLINE] | > 20 | > 20
14 | COc1cccc(-c2cc(F)c(Nc3ncccc3C(=O)O)c(F)c2)c1 [ASLAN-003] | > 20 | > 20
15 | CC(=O)Oc1ccccc1C(=O)O [ASPIRIN] | > 20 | > 20
16 | O=C(NC1CCNCC1)c1n[nH]cc1NC(=O)c1c(Cl)cccc1Cl [AT-7519] | > 20 | > 20
17 | O=C(Nc1c[nH]nc1-c1nc2ccc(CN3CCOCC3)cc2[nH]1)NC1CC1 [AT-9283] | > 20 | > 20

Row | Structure (SMILES) | IC50 [µM] | IC50 (read-out: pIC50 (converted)) [µM]
18 | COC(=O)N[C@H](C(=O)N[C@@H](Cc1ccccc1)[C@@H](O)CN(Cc1ccc(-c2ccccn2)cc1)NC(=O)[C@@H](NC(=O)OC)C(C)(C)C)C(C)(C)C [ATAZANAVIR] | > 20 | > 20
19 | O=C1c2ccccc2C(=O)c2c1ccc(O)c2O [ATHRAQUINONES A] | > 20 | > 20
20 | Cc1cc(C)cc([C@@H]2CCCN2Cc2ccc(Oc3ccc(C(N)=O)cc3F)cc2)c1 [ATICAPRANT] | > 20 | > 20
21 | CCC1(c2c[nH]cn2)Cc2ccccc2C1 [ATIPAMEZOLE] | > 20 | > 20
22 | CCCC1(CCC)CCC2(CCN(CCCN(CC)CC)C2)CC1 [ATIPRIMOD] | > 20 | > 20
23 | CNCC[C@@H](Oc1ccccc1C)c1ccccc1 [ATOMOXETINE] | > 20 | > 20
24 | CCOc1cc2c(c(F)c1OCC)C(=N)N(CC(=O)c1cc(N3CCOCC3)c(OC)c(C(C)(C)C)c1)C2 [ATOPAXAR] | > 20 | > 20
25 | CC(C)c1c(C(=O)Nc2ccccc2)c(-c2ccccc2)c(-c2ccc(F)cc2)n1CC[C@@H](O)C[C@@H](O)CC(=O)O [ATORVASTATIN] | > 20 | > 20
26 | O=C1C(O)=C([C@H]2CC[C@H](c3ccc(Cl)cc3)CC2)C(=O)c2ccccc21 [ATOVAQUONE] | > 20 | > 20
27 | COC(=O)c1c(C)cc(OC(=O)c2c(C)cc(O)c(C=O)c2O)c(C)c1O [ATRANORIN] | > 20 | > 20
28 | C[C@H](C#Cc1ccc(Cc2ccc(F)cc2)s1)N(O)C(N)=O [ATRELEUTON] | > 20 | > 20
29 | CC(O)(C(N)=O)c1ccccc1 (stereo not drawn) [ATROLACTAMIDE] | > 20 | > 20
30 | CN1[C@@H]2CC[C@H]1C[C@@H](OC(=O)C(CO)c1ccccc1)C2 (stereo partly drawn) [ATROPINE] | > 20 | > 20
31 | O=C(O)C1=CC(=C(c2ccc(O)c(C(=O)O)c2)c2ccc(O)c(C(=O)O)c2)C=CC1=O [AURINTRICARBOXYLIC ACID] | > 20 | > 20
32 | Oc1ccc([C@H]2COc3cc(O)ccc3C2)cc1 [AUS-131] | > 20 | > 20
33 | CC1=CC(=O)C2=C(C)C[C@H](O)[C@@H]3[C@H](OC(=O)[C@H]3C)[C@@H]12 [AUSTRICIN] | > 20 | > 20
34 | Cc1nc2cccc(N)c2c(=O)n1C1CCC(=O)NC1=O (stereo not drawn) [AVADOMIDE] | > 20 | > 20
